Measured values as given in patent US20030229132A1, “Small molecule modulators of apoptosis” (priority 2002, published 2003).

What was measured:
Apaf-1 = target: T1, Apaf-1 (Homo sapiens, UniProt O14727); test: Apaf-1 oligomerization by gel filtration; assay type: biochemical; details: for increase of oligomerization of Apaf-1 over the vehicle alone: 20 μM compound, 0.15 μM cyto c; for Apaf-1 complex assembly in the absence of cyto c: no cyto c
T1 construct: resulting in full-length Apaf-XL with a C-terminal six histidine tag; six histidine tag (His6) (C); made in house; host or cells: insect cells (Hi-5), baculovirus vector pFastbacHT / pFastbacH
T1 sequence (O14727 1-1248): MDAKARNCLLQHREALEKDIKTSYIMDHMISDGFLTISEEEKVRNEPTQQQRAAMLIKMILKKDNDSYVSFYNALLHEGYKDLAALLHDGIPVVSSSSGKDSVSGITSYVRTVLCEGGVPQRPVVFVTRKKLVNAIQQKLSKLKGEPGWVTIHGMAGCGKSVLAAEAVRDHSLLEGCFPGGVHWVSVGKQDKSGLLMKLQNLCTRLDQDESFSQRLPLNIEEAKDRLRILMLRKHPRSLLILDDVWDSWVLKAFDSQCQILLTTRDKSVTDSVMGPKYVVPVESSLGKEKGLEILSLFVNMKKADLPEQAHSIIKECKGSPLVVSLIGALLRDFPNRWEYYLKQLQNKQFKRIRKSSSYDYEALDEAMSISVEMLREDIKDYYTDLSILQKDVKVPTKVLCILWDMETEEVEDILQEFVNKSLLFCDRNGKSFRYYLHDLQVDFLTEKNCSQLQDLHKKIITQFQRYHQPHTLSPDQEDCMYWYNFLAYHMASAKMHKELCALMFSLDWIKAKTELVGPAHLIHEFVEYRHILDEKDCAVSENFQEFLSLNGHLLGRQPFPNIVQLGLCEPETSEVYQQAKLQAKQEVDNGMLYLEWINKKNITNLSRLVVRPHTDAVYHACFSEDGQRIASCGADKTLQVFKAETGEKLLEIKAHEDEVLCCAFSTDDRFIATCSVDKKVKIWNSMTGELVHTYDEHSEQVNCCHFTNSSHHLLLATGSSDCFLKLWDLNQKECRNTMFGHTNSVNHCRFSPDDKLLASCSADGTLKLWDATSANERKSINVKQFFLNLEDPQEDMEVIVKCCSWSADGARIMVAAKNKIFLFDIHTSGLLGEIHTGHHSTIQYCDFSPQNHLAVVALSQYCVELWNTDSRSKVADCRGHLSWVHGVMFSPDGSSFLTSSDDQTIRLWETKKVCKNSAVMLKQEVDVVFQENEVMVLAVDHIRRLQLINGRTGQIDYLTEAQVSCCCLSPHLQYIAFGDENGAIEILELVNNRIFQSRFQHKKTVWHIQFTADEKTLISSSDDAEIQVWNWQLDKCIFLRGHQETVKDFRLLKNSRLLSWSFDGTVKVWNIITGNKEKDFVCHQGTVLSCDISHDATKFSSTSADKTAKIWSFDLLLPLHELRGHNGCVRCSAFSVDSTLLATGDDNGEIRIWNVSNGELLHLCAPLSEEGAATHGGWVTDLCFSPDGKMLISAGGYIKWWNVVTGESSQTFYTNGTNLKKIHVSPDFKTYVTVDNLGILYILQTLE
Method: FIG. 7 depicts activity of compounds 1-5 at low cyto c concentrations in a purified system. Apaf-1 was incubated with vehicle, cyto c, or cyto c plus 20 μM compound as indicated, and then separated on a Superose 6 gel filtration column. Individual fractions were assayed for relative Apaf-1 concentrations by capture ELISA (bar graph), or the ability to activate procaspase-3 processing in lysates (line graph). The percent of Apaf-1 in apoptosomes was determined by dividing the amount of Apaf-1 in fractions 8-11 by the total amount of Apaf-1. The extent of caspase-3 activation (given in arbitrary units) corresponds to the area under the curve for fractions 8-11 in each panel. Black bars represent fractions used for calculations.
As the compounds appeared to be acting prior to caspase activation, their effect on the oligomerization of Apaf-1 was assessed (K. Cain, D. G. Brown, C. Langlais, G. M. Cohen, J Biol Chem 274, 22686-92 (1999); K. Cain et al., J Biol Chem 275, 6067-70 (2000)). By gel filtration, Apaf-1 normally runs as a monomer of ˜140 kD (FIG. 7) (see, A. Saleh, S. M. Srinivasula, S. Acharya, R. Fishel, E. S. Alnemri, J Biol Chem 274, 17941-5 (1999)). Incubation of Apaf-1 with 5 μM cyto c induces over 90% of the Apaf-1 to form large complexes of ˜700 kD, whereas incubation with 0.15 μM cyto c concentration allowed only 22% of the Apaf-1 to assemble into complexes. However, the addition of 20 μM compound 2 or 5 at the lower cyto c concentration caused the formation of two higher molecular weight complexes: a major peak that runs at the same retention time as the complex seen at 5 μM cyto c (˜700 kD), and a minor peak that elutes in the void volume. […] To determine if the Apaf-1 complexes induced by the compounds at the lower cyto c concentration are competent for caspase activation, procaspase-9, procaspase-3, and dATP were added to fractions from the gel filtration column and assayed for caspase-3 activation. Fractions from samples that had been incubated with 5 μM cyto c strongly activated caspase-3 processing (FIG. 7, panel ii, line graph), with the maximal caspase activation corresponding to the fractions that contained the apoptosome complex. On the other hand, no fractions form the sample without cyto c activated capsase-3 processing (panel i). There was a small but measurable amount of capsase-3 activation when the cyto c concentration was reduced to 0.15 μM (panel iii). However, the extent of caspase-3 activation at the reduced level of cyto c increased approximately 4-fold when either compound 2 or 5 was added to the reaction (from 0.36 arbitrary units for the vehicle alone to 1.57 and 1.4 for compounds 2 and 5, respectively, panels iv and vi). […] Again, there was no increase in capsapse-3 activation when compounds were incubated with Apaf-1 in the absence of cyto c.
Bovine heart cyto c is purchased from Sigma and used without further purification. The XL form of Apaf-1 is cloned into pFastbacH and expressed in insect cells, resulting in full-length Apaf-XL with a C-terminal six histidine tag. Purification of Apaf-1 is according to A. Saleh, et al., J Biol Chem 274, 17941-45 (1999). 100 μL of 2 μM Apaf-1 is combined with 300 μM dATP in a mixture, with or without the further addition of 0.15 μM cyto c or compounds and heated for 30 min at 37° C.
The mixtures are next injected into a Superose 6 gel filtration column and separated at 0.4 mL/min in PBS; 0.8 mL fractions are collected 10 min after injection. […]

Jurkat cells = test: DNA fragmentation analysis in Jurkat cells; assay type: cell-based, human; details: 50 μM compound or 1 μM staurosporin, 8 hr

increase of oligomerization of Apaf-1 over the vehicle alone (Apaf-1)	Apaf-1 complex assembly in the absence of cyto c (Apaf-1)	Compound	DNA fragmentation (Jurkat cells)
about 1.5 fold	no complex assembly	O=C1C(=O)N(Cc2ccc(Cl)c(Cl)c2)c2ccccc21 [Compound 2]	induced DNA fragmentation
no effect	–	O=C(NCc1ccc(Cl)c(Cl)c1)OC1CCc2ccccc21 (centres unmarked) [Compound 4]	less pronounced effect
about 1.5 fold	no complex assembly	O=C(NCc1ccc(Cl)c(Cl)c1)OC1CCc2ccccc21 (centres unmarked) [Compound 5]	induced DNA fragmentation
